This is an account of results in patent publication US20230233533A1, “COMPOSITIONS, METHODS OF TREATING AND PREVENTING FUNGAL INFECTIONS, AND METHODS OF INHIBITING PRP8 INTEIN EXPRESSION” (Health Research, Inc., priority 2020, published 2023).

By CC50 is commonly meant the concentration at which the toxic effect on the cells reaches its halfway point. Broadly, the MIC is the lowest concentration found to suppress growth.

Converted amounts (≈) assume the structure as drawn. “And” between values parts separate entries of the source, which are not always exact repeats. Identical values can stand only once.

Data set [1] relates to C. neoformans (H99). The data set is described as follows: In vivo preliminary efficacy study, intranasal infection of BALB/c mice. Details: species or system Cryptococcus neoformans. To be noted: 75 mg/kg oral gavage once daily. The protocol:
FIG. 7 illustrates efficacy of 6G318S in mouse models. BALB/c mice (5-6 wk old, male and female were dosed orally by either vehicle control (VC) or 6G318S-75 mg/kg once daily for 5 days. On day 5, all mice were euthanized, lungs were collected, weighed and homogenized in RPMI-1640-MOPS media. Serial 10-fold dilution of the homogenate is made and a volume of 100 ul is plated on to Sabouraud Dextrose-agar plates with antibiotics. Colonies were counted on day 3 and normalized to weight of the lung.
Treatment was given for 6 days. On day 6 few mice were euthanized to check the […] in lungs.

Data set [2] can be described thus: In vivo toxicity studies in adult BALB/c mice. As for the experimental part: Mouse 1: Oral, VC—125 ul of formulation without drug is given per mouse by oral gavage
Mouse 3: IP, VC—60 ul of the formulation without the drug is injected intraperitoneally
A total of 5 doses were given (one/day). Weight, posture, movement, activity, paralysis, seizure, and fur nature were monitored in the morning and evening.

For data set [3], the system named is C. neoformans H99 strain transformed with empty vector, WT Prp8 or AAAA mutant. The data set is described as follows: Resistance study, MIC in H99 overexpressing Prp8 intein. In kind it is cell-based, Cryptococcus neoformans. The protocol:
For resistance studies, C. neoformans H99 strain transformed with an empty pXL1-PTEF1 vector, the Prp8-pXL1-PTEF1 (WT Prp8) construct, or the AAAA mutant were used, as described. Li et al., “Cisplatin Protects Mice From Challenge of Cryptococcus Neoformans by Targeting the Prp8 Intein,” Emerging Microbes & Infections 8(1):895-908 (2019), which is hereby incorporated by reference in its entirety. MICs for selected compounds were determined for these transformed cells as described above.

In data set [4] the target is C1A/H62A/D95A/H169A (AAAA) Prp8 intein mutant. The data set can be described thus: Surface plasmon resonance (SPR), AAAA mutant. Format: binding, Cryptococcus gattii. (SPR reads the build-up and loss of mass on a sensor chip optically.)
The nature of data set [5]: in vitro. To be noted: human, CC50 A549. Format: cell-based, human. Summed up:
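A549 cells (5×10^3 per well) were exposed to compounds at 37 °C for 48 h, and viability was read by MTT assay; N=3.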

Data set [6] relates to Candida albicans. The data set can be described thus: Fungal susceptibility test, broth microdilution MIC. Format: cell-based. To be noted: microdilution assay. As for the experimental part:
Fungal susceptibility test—The fungal susceptibility test was carried out with a compound concentration series as described. Li et al., “Cisplatin Protects Mice From Challenge of Cryptococcus neoformans by Targeting the Prp8 Intein,” Emerging Microbes & Infections 8(1):895-908 (2019), which is hereby incorporated by reference in its entirety. The broth microdilution method was used to determine the compound MIC values against C. neoformans. In brief, serial 2-fold dilutions of the 6G-318SS (20 to 0.03 μg/ml) were made in 100 μl RPMI-1640 medium with MOPS in 96-well U-bottom plates. The C. neoformans H99 strain (100 μl of 0.5×10^5/ml) in log phase was added to each well. […] The MIC break-point was defined as no visible fungal growth by naked eye or by determining the 90% growth inhibition using absorbance at 630 nm, compared with no inhibitor control in a 96-well plate.
C. albicans, a fungus without the Prp8 intein, was also used as a control.
For orientation: Broth dilution looks for growth in wells or tubes with falling amounts of substance.

The target of data set [7] is T1, C1A Prp8 intein mutant (Cryptococcus gattii, UniProt E6R027, C1531A).
T1 sequence (E6R027 1531-1700 C1531A): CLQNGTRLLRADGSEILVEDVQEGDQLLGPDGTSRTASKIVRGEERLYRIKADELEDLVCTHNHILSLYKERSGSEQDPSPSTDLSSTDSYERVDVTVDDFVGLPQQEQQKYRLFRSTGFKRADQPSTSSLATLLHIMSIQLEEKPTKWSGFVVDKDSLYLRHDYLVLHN
To be noted: C1A versus WT, SPR. The protocol:
The Prp8 intein and mutants were immobilized onto a ProteOn™ GLH sensor chip (2,500-7,000 RU) (Bio-Rad). A 3-fold dilution series of compounds was injected as the analytes. A blank surface blocked by ethanolamine was used as the control surface. The experiment was carried out at a flow rate of 100 μl/min using a PBSTD buffer containing 1×PBS, 0.005% surfactant P20, and 5% DMSO. Association (ka) and dissociation (kd) rates, as well as the dissociation constant (KD), were obtained by global fitting of the SPR data from multiple concentrations to a simple 1:1 Langmuir binding model, using the ProteOn Manager software suite (Bio-Rad).

In the case of `O=C(Nc1ccc(F)cc1)c1nnsc1S(=O)(=O)c1ccc(Cl)cc1` [6G-318S, 5-[(4-chlorophenyl)sulfonyl]-N-(4-fluorophenyl)-1,2,3-thiadiazole-4-carboxamide], the “fungal cells in lungs versus vehicle controls” value in data set [1] was “indication of reduction of fungal cells in lungs”. The “observed condition of mouse” value in data set [2] (50 mg/kg intraperitoneally) is on record as “died on day 2”. Besides, in data set [2] (mouse, in vivo, po, 5 days), the “dose with no observed toxicity / safe dose, oral” value turned out to be 200 mg/kg. Besides, the “MIC with empty vector or AAAA mutant Prp8 intein-transformed H99 cells” value in data set [3] was “identical MIC values”. Also, in data set [3] (compared to H99 with empty vector or AAAA mutant), the “increase of MIC in H99 transformed with WT Prp8 intein” value is 4 fold. Moreover, in data set [4], the “KD AAAA” value is recorded as “completely lost binding affinity”. Further, the CC50 at 48 h in data set [5] was 13.9 µg/mL and ~35 µM. The same compound yielded an MIC in data set [6] of 5 µg/mL (≈ 12.6 µM). Further, the “reduction of binding affinity by Cys1 to alanine mutation” value in data set [7] is reported as ~3 fold.
